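Values below derive from 48-hour exposures of cells grown in 96-well plates, with endpoints linearly interpolated between the two concentrations bracketing the appropriate inhibition level. At the TGI there is no net growth.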
Key:
Test in all cases: growth of human tumour cells (NCI), 48 h
[1] = test system: SF-539 CNS
[2] = test system: M14 melanoma
[3] = test system: 786-0 renal
[4] = test system: MALME-3M melanoma
[5] = test system: DU-145 prostate
[6] = test system: NCI-H23 lung
[7] = test system: IGROV1 ovarian
[8] = test system: NCI-H522 lung
[9] = test system: MDA-N
[10] = test system: UACC-257 melanoma
[11] = test system: LOX IMVI melanoma
[12] = test system: HCT-116 colon
[13] = test system: NCI-H460 lung
[14] = test system: HS 578T breast
[15] = test system: U251 CNS
[16] = test system: SNB-19 CNS
[17] = test system: COLO 205 colon
[18] = test system: SW-620 colon
[19] = test system: SR leukemia
[20] = test system: NCI/ADR-RES ovarian
[21] = test system: HOP-62 NSCLC
[22] = test system: MDA-MB-435
[23] = test system: HCC-2998 colon
[24] = test system: SK-MEL-5 melanoma
[25] = test system: RPMI-8226 leukemia
[26] = test system: PC-3 prostate
[27] = test system: UO-31 renal
[28] = test system: HT29 colon
[29] = test system: UACC-62 melanoma
[30] = test system: OVCAR-3 ovarian
[31] = test system: BT-549 breast
[32] = test system: T-47D breast
[33] = test system: OVCAR-4 ovarian
[34] = test system: SK-MEL-2 melanoma
[35] = test system: ACHN renal
[36] = test system: MCF7 breast
[37] = test system: SN12C renal
[38] = test system: SNB-75 CNS
[39] = test system: CCRF-CEM leukemia
[40] = test system: A498 renal
[41] = test system: TK-10 renal
[42] = test system: HCT-15 colon
[43] = test system: SK-OV-3 ovarian
[44] = test system: RXF 393 renal
[45] = test system: K-562 leukemia
[46] = test system: NCI-H226 lung
[47] = test system: MOLT-4 leukemia
[48] = test system: OVCAR-5 ovarian
[49] = test system: OVCAR-8 ovarian
[50] = test system: SK-MEL-28 melanoma
[51] = test system: SF-295 CNS
[52] = test system: MDA-MB-231 breast
[53] = test system: SF-268 CNS
[54] = test system: A549 NSCLC
[55] = test system: CAKI-1 renal
[56] = test system: EKVX NSCLC
[57] = test system: HOP-92 NSCLC
[58] = test system: HL-60(TB) leukemia
[59] = test system: KM12 colon

Measured: TGI

COc1cc(OCc2ccc3oc(=O)c(-c4ccccc4)nc3c2)cc(OC)c1OC
not listed: [55] | [56] | [57] | [58] | [59]
> 100 µM: all other assays above

O=C(O)C1CC(c2ccc(F)cc2)=Nc2ccc(F)cc2S1 (centres undefined)
not listed: [11] | [15] | [19] | [21]
> 100 µM: all other assays above

— PubChem BioAssay (NCI)
